The text below walks through data of patent US9969698B2, “Quinoxalinyl-piperazinamide methods of use” (REXAHN PHARMACEUTICALS, INC., priority 2015, dated 2018).

This assay concerns the target T1, p68 RNA helicase (Homo sapiens, UniProt P17844).
T1 construct: made in house
In words: RNA-dependent ATPase assay. The conditions noted are these: total RNA extracted from yeast. The assay is classed as biochemical. How it is done: ATPase activity was determined by measuring the released inorganic phosphate during ATP hydrolysis using a direct colorimetric assay (Shin et al., Cancer Res., 67:7572-7578 (2007); Yang et. al., Cell, 127:139-155 (2006)). A typical ATPase assay was carried out in 50 μl reaction volumes, containing 20 mM Tris-HCl pH 7.5, 200 mM NaCl, 1 mM MgCl2, 5 mM DTT, ˜1-2 of appropriate substrate, 4 mM ATP, and 10 μl of helicase. The ATPase reactions were incubated at 37° C. for 30 minutes. After incubation, 1 ml of malachitegreen-molybdenum reagent was added to the reaction mixture, and reactions were further incubated at room temperature for exactly 5 minutes. The absorption (A) at 630 nm was then measured. The concentrations of inorganic phosphate were determined by matching the A630nm in a standard curve of A630nm vs. known phosphate concentrations. […] The percentage of inhibition by defining the ATPase activity of phospho-p68 without RX-5902 as zero percent inhibition was calculated and IC50 of RX-5902 was calculated by non-linear regression analysis using Kaledia Graph software program (Synergy Software, Reading, Pa.).
The effect of RX-5902 on ATPase activity of p68 was investigated. To do this, ATPase activity of recombinant p68 in the presence of RX-5902 and total RNA extracted from yeast were measured.

T1 sequence (P17844 whole entry): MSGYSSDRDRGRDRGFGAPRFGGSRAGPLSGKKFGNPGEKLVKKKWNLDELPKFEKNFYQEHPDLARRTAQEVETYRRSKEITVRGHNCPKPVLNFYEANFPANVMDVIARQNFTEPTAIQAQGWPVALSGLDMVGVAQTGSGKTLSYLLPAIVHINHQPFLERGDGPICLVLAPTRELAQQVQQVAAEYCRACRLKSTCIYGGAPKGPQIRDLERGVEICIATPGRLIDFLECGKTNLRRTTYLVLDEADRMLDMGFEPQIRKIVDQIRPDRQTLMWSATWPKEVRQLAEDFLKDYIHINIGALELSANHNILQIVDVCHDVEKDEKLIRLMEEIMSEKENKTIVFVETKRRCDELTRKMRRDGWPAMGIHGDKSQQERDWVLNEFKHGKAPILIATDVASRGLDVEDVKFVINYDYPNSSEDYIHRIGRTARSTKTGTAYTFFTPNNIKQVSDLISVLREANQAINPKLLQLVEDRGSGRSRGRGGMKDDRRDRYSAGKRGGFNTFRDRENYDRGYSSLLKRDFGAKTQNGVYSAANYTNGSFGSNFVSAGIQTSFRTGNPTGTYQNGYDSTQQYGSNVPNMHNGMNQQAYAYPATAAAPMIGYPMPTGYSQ

In the case of `COc1cc(OC)cc(N2CCN(C(=O)Nc3nc4cc(F)ccc4nc3OC)CC2)c1` [RX-5902, 4-(3,5-dimethoxyphenyl)-N-(7-fluoro-3-methoxyquinoxalin-2-yl)piperazine-1-carboxamide], for the setting “0.2 μM”, the “effect on RNA-dependent ATPase activity” value is reported as “did not affect”. For the same molecule, the “inhibition of RNA-dependent ATPase activity” value (20 μM) is on record as “less than 30%”.
